This note sets out measurements from patent publication US20250051282A1, “COMPOUNDS FOR TREATING POLYQ-RELATED NEURODEGENERATIVE DISORDERS” (HANGZHOU JIJING PHARMACEUTICAL TECHNOLOGY LIMITED, priority 2021, published 2025).

The structures appear in SMILES notation.

This test has as its system ATXN1(60Q). The test can be described thus: Daoy-ATXN1(60Q)-mATXN1 MSD assay (CTG normalized). It counts as cell-based. Conditions: Daoy-Flag-ATXN1(60Q) stable cells, compound added Day 2, lysis Day 3, final DMSO 0.3%, read-out: Daoy-ATXN1(60Q)-mATXN1 MSD (CTG normalized) DC50. The procedure:
Protocol for MSD Assay: Daoy-ATXN1(600)-mATXN1 MSD (CTG normalized)
The Flag-ATXN1(60Q) gene is synthesized by Genescript and cloned into the pLVX-IRES-Puro vector (Takarabio, catalog No. 632183) using EcoRI/BamHI restriction enzyme sites. Lentivirus is made by transfecting HEK293T cells with pLVX-IRES-Puro-Flag-ATXN1(60Q) plasmids and packaging plasmids psPAX2 and pMD2.G at 4:3:1 ratio (8:6:[…], respectively) in 10 cm plates, and are harvested at 48 hours post transfection. Daoy cells (ATCC catalog No. HTB-186) seeded in T25 flasks are infected with the lentivirus in the presence of 8 µg/mL polybrene (Sigma, TR-1003-G) for 24 hours. 48 hours post infection, the cells are selected using 0.5 […] (Sigma, P8833) for more than 5 days until all cells in the uninfected group die. The expression of Flag-ATXN1(60Q) is verified by anti-Flag immunoblot using anti-Flag antibody (Sigma, F1804-200UG, M2).
As explained above, Daoy-Flag-ATXN1(60Q) cells are prepared as a stable cell line by infecting Daoy cells with lentivirus. The media for the cells is EMEM (ATTC, 30-2008) with 10% fetal bovin serum (FBS).
On Day 1, the Daoy-Flag-ATXN1(60Q) cells are seeded in a 96 well plate at a concentration of 1.2×10^4/well. On Day 2, the cells are treated with test compounds at test concentrations (compounds are serially diluted with DMSO to obtain test concentrations, such that final DMSO concentration is 0.3%). On Day 3, the cells are washed with 100 μL of phosphate-buffered saline (PBS) per well, and then 30 μL of radioimmuno-precipitation assay (RIPA) buffer (with protease and phosphatase inhibitor cocktail) is added to each well.
The well plate is then cooled on ice for 30 minutes in order to complete lysis, and MSD samples are prepared using 10 μL of Daoy-Flag-ATXN1-60Q lysate and 90 μL of RIPA buffer with gentle mixing. Each MSD sample has a total volume of 100 μL, and is used immediately or stored at −80° C.
A standard Meso Scale Discovery (MSD) plate is coated with anti-Flag (Sigma, F1804-200UG, M2) in PBS at 1:500 dilution ratio and 40 µL/well, and is incubated at 4° C. overnight with shaking at 600 rpm. Then, the MSD plate is washed 3 times with 150 µL/well of 1X TBST (tris-buffered saline (TBS) with Tween 20) buffer, and the MSD plate is blocked with 150 μL of blocking buffer [3% Blocker A in 1X TBST, (3 g Blocker A per 100 mL 1X TBST)] and shaken for 1 hour at 600 rpm at room temperature. Then, the MSD plate is washed three times with 150 μL/well of 1X TBST. Next, the diluted lysate samples (from Sample Preparation above) are added to the MSD plate at 25 μL/well, and the MSD plate is shaken at 600 rpm for 1 hour at room temperature. Then the MSD plate is washed 3 times with 150 μL/well of 1X TBST.
Detection antibody anti-Ataxin 1 (G-bio, ITA1916) (1:500), which is prepared in antibody detection buffer (1% Blocker A in 1X TBST), is then added to the MSD plate at 25 µL/well, and the MSD plate is shaken at 600 rpm for 1 hour at room temperature. The MSD plate is then washed three times with 150 μL/well of 1X TBST. Next, a secondary detection antibody, Goat anti-rabit (GAR) with SULFO-TAG (1:500), which is prepared in antibody detection buffer (1% Blocker A in 1X TBST), is added at 25 μL/well and the MSD plate is shaken at 600 rpm for 1 hour at room temperature. Then the MSD plate is washed 3 times with 150 μL/well of 1X TBST, and 2X MSD reading buffer is added at 150 μL/well (diluted from 4x MSD reading buffer with water). Finally, the signal from each well is measured on the MSD Meso QuickPle SQ120 Plate Reader. DC50 data is calculated using collaborate drug discovery (CDD) software (https://www.collaborativedrug.com/about).
`O=C1Nc2ccc(Br)cc2/C1=C(/NC1CNC1)c1cccc(O)c1` [Example 26, (Z)-3-((azetidin-3-ylamino)(3-hydroxyphenyl)methylene) 5-bromindolin-2-one]: the DC50 is less than 10 µM. Next, `NCCN/C(=C1\C(=O)Nc2ccc(Br)cc21)c1cccc(O)c1` [Example 27, (Z)-3-(((2-aminoethyl)amino)(3-hydroxyphenyl)methylene)-5-bromo indolin-2-one]: less than 10 µM. On to `NCCN/C(=C1\C(=O)Nc2ccc(Br)cc21)c1ccccc1` [Example 28, (Z)-3-(((2-aminoethyl)amino) (phenyl)methylene)-5-bromoindolin-2-one], for which the DC50 is 10 to 30 µM. On to `NCCN/C(=C1\C(=O)Nc2ccc(Br)cc21)c1cccc(C(F)F)c1` [Example 30, (Z)-3-(((2-aminoethyl)amino)(3-(difluoromethyl)phenyl)methylene)-5-bromoindolin-2-one], for which the DC50 is less than 10 µM.

As for `NCCN/C(=C1\C(=O)Nc2ccc(Br)cc21)c1cc(N)ccc1F` [Example 32, (Z)-3-((5-amino-2-fluorophenyl)((2-aminoethyl)amino)methylene)-5-bromo indolin-2-one], the DC50 was less than 10 µM. As to `Nc1cccc(/C(NC2CNC2)=C2/C(=O)Nc3ccc(Br)cc32)c1` [Example 33, (Z)-3-((3-aminophenyl)(azetidin-3-ylamino)methylene)-5-bromoindolin-2-one], the DC50 is less than 10 µM. Turning to `Nc1cccc(/C(NC2CNC2)=C2/C(=O)Nc3ccc(OC(F)(F)F)cc32)c1` [Example 34, (Z)-3-((3-aminophenyl)(azetidin-3-ylamino)methylene)-5-(trifluoromethoxy) indolin-2-one], the DC50 was less than 10 µM. For the molecule `O=C1Nc2ccc(Br)cc2/C1=C(/NC1CNC1)c1ccccc1` [Example 35, (Z)-3-((azetidin-3-ylamino)(phenyl)methylene)-5-bromo indolin-2-one], the DC50 is less than 10 µM. For `NCCOCCOCCOCCN/C(=C1\C(=O)Nc2ccc(Br)cc21)c1cccc(O)c1` [Example 36, (Z)-3-(13-amino-1-(3-hydroxyphenyl)-5,8,11-trioxa-2-azatridecylidene)-5-bromoindolin-2-one], the DC50 was 10 to 30 µM. Next, `O=C1Nc2ccc(Br)cc2/C1=C(/NC1CNC1)c1cccc(F)c1` [Example 37, (Z)-3-((azetidin-3-ylamino)(3-fluorophenyl)methylene)-5-bromoindolin-2-one]: less than 10 µM; `O=C1Nc2ccc(Br)cc2/C1=C(/Nc1ccnnc1)c1cccc(O)c1` [Example 38, (Z)-5-bromo-3-((3-hydroxyphenyl)(pyridazin-4-ylamino)methylene) indolin-2-one]: less than 10 µM. For the molecule `O=C1Nc2ccc(Br)cc2/C1=C(/Nc1ccnnc1)c1ccccc1` [Example 39, (Z)-5-bromo-3-(phenyl(pyridazin-4-ylamino)methylene) indolin-2-one], the DC50 is less than 10 µM.

On to `O=C1Nc2ccc(Br)cc2/C1=C(/Nc1ccnnc1)c1cccc(F)c1` [Example 40, (Z)-5-bromo-3-((3-fluorophenyl)(pyridazin-4-ylamino)methylene) indolin-2-one], for which the DC50 was less than 10 µM. For the molecule `O=C1Nc2ccc(Br)cc2/C1=C(/Nc1ccnnc1)c1cccc(C(F)F)c1` [Example 41, (Z)-5-bromo-3-((3-(difluoromethyl)phenyl)(pyridazin-4-ylamino)methylene) indolin-2-one], the DC50 is less than 10 µM.

Turning to `O=C1Nc2ccc(Br)cc2/C1=C(/Nc1ccnnc1)c1ccc(F)c(F)c1` [Example 42, (Z)-5-bromo-3-((3,4-difluorophenyl) (pyrazin-4-ylamino)methylene) indolin-2-one], the DC50 is greater than 30 µM. `Cn1cc(N/C(=C2\C(=O)Nc3ccc(Br)cc32)c2ccc(F)c(F)c2)cn1` [Example 43, (Z)-5-bromo-3-((3,4-difluorophenyl)((1-methyl-1H-pyrazol-4-yl)amino)methylene) indolin-2-one]: the DC50 is greater than 30 µM.
